Laboratory results taken from US7022667B2, “O-derivatized nocathiacin derivatives” (Bristol-Myers Squibb Company, priority 2002, dated 2006).
Converted amounts (≈) assume the structure as drawn.

Columns and labels:
Assay in all cases: MIC, broth micro dilution assay (NCCLS)
Format in all cases: cell-based
[1] = test system: Enterococcus faecalis A20688; conditions: Mueller-Hinton medium, 35° C., 18 hours
Description: (§1) The serial broth dilution method used Mueller-Hinton medium except for the Streptococcus pneumoniae which was tested in 50% Mueller-Hinton medium and 50% Todd Hewitt medium. The final bacterial inoculate contained approximately 5×10^5 cfu/well and was run on microtiter plates. The volume of each well was 100 μL and the plates were incubated at 35° C. for 18 hours in ambient air. The MIC was defined as the lowest drug concentration that prevented visible growth.

[2] = test system: Staphylococcus aureus A15090; conditions: Mueller-Hinton medium, 35° C., 18 hours
Description: as §1

[3] = test system: Streptococcus pneumoniae A28272; conditions: 50% Mueller-Hinton medium and 50% Todd Hewitt medium, 35° C., 18 hours
Description: as §1

Question: How did the “MIC (μg/mL) Enterococcus faecalis A20688” value [1] turn out when `C=C(NC(=O)c1csc(-c2nc3c(cc2O)-c2nc(cs2)C(=O)NC(C(C)O)C(=O)NC(=C(C)OC)c2nc(cs2)C(=O)NC2c4nc(cs4)C(=O)NC(COC(=O)c4c5c6c(cccc6n4OCOCC[Si](C)(C)C)COC(=O)C(OC4CC(C)(O)C(N(C)C)C(C)O4)C2OC5)c2nc-3cs2)n1)C(N)=O` (stereo not drawn) [Example 45] was run?
Answer: The value was 1.0 µg/mL (≈ 0.638 µM).

Question: What about the “MIC (μg/mL) Staphylococcus aureus A15090” value [2] of the same compound?
Answer: The value was 2.0 µg/mL (≈ 1.28 µM).

Question: What about the “MIC (μg/mL) Streptococcus pneumoniae A28272” value [3] of the same compound?
Answer: The value was 0.03 µg/mL (≈ 0.0191 µM).

Question: For `C=C(NC(=O)c1csc(-c2nc3c(cc2O)-c2nc(cs2)C(=O)NC(C(C)O)C(=O)NC(=C(C)OC)c2nc(cs2)C(=O)NC2c4nc(cs4)C(=O)NC(COC(=O)c4c5c6c(cccc6n4OCCn4ccnc4)COC(=O)C(OC4CC(C)(O)C(N(C)C)C(C)O4)C2OC5)c2nc-3cs2)n1)C(N)=O` (stereo not drawn) [Example 46], which “MIC (μg/mL) Enterococcus faecalis A20688” value [1] is on record?
Answer: Its value is 1.0 µg/mL (≈ 0.653 µM).

Question: And the “MIC (μg/mL) Staphylococcus aureus A15090” value [2]?
Answer: The value was 0.5 µg/mL (≈ 0.326 µM).

Question: What about the “MIC (μg/mL) Streptococcus pneumoniae A28272” value [3] of the same compound?
Answer: Its value is 0.015 µg/mL (≈ 0.00979 µM).

Question: How did the “MIC (μg/mL) Enterococcus faecalis A20688” value [1] turn out when `C=C(NC(=O)c1csc(-c2nc3c(cc2O)-c2nc(cs2)C(=O)NC(C(C)O)C(=O)NC(=C(C)OC)c2nc(cs2)C(=O)NC2c4nc(cs4)C(=O)NC(COC(=O)c4c5c6c(cccc6n4OCCCNS(=O)(=O)c4cn(C)cn4)COC(=O)C(OC4CC(C)(O)C(N(C)C)C(C)O4)C2OC5)c2nc-3cs2)n1)C(N)=O` (stereo not drawn) [Example 47] was run?
Answer: The value was 0.25 µg/mL (≈ 0.153 µM).

Question: What about the “MIC (μg/mL) Staphylococcus aureus A15090” value [2] of the same compound?
Answer: Its value is 0.06 µg/mL (≈ 0.0366 µM).

Question: And the “MIC (μg/mL) Streptococcus pneumoniae A28272” value [3]?
Answer: Its value is 0.015 µg/mL (≈ 0.00915 µM).

Question: For `C=C(NC(=O)c1csc(-c2nc3c(cc2O)-c2nc(cs2)C(=O)NC(C(C)O)C(=O)NC(=C(C)OC)c2nc(cs2)C(=O)NC2c4nc(cs4)C(=O)NC(COC(=O)c4c5c6c(cccc6n4OCCCNC(=N)N)COC(=O)C(OC4CC(C)(O)C(N(C)C)C(C)O4)C2OC5)c2nc-3cs2)n1)C(N)=O` (stereo not drawn) [Example 48], which “MIC (μg/mL) Enterococcus faecalis A20688” value [1] is on record?
Answer: The value was 2 µg/mL (≈ 1.3 µM).

Question: What about the “MIC (μg/mL) Staphylococcus aureus A15090” value [2] of the same compound?
Answer: The value was 1.0 µg/mL (≈ 0.651 µM).

Question: And the “MIC (μg/mL) Streptococcus pneumoniae A28272” value [3]?
Answer: Its value is 0.03 µg/mL (≈ 0.0195 µM).

Question: For `C=C(NC(=O)c1csc(-c2nc3c(cc2O)-c2nc(cs2)C(=O)NC(C(C)O)C(=O)NC(=C(C)OC)c2nc(cs2)C(=O)NC2c4nc(cs4)C(=O)NC(COC(=O)c4c5c6c(cccc6n4OCCCNS(=O)(=O)N(C)C)COC(=O)C(OC4CC(C)(O)C(N(C)C)C(C)O4)C2OC5)c2nc-3cs2)n1)C(N)=O` (stereo not drawn) [Example 49], which “MIC (μg/mL) Enterococcus faecalis A20688” value [1] is on record?
Answer: Its value is 0.25 µg/mL (≈ 0.156 µM).

Question: What about the “MIC (μg/mL) Staphylococcus aureus A15090” value [2] of the same compound?
Answer: The value was 0.5 µg/mL (≈ 0.312 µM).

Question: And the “MIC (μg/mL) Streptococcus pneumoniae A28272” value [3]?
Answer: Its value is 0.007 µg/mL (≈ 0.00437 µM).

Question: How did the “MIC (μg/mL) Enterococcus faecalis A20688” value [1] turn out when `C=C(NC(=O)c1csc(-c2nc3c(cc2O)-c2nc(cs2)C(=O)NC(C(C)O)C(=O)NC(=C(C)OC)c2nc(cs2)C(=O)NC2c4nc(cs4)C(=O)NC(COC(=O)c4c5c6c(cccc6n4OCCCN4CCN(C)CC4)COC(=O)C(OC4CC(C)(O)C(N(C)C)C(C)O4)C2OC5)c2nc-3cs2)n1)C(N)=O` (stereo not drawn) [Example 50] was run?
Answer: Its value is 1.0 µg/mL (≈ 0.634 µM).

Question: What about the “MIC (μg/mL) Staphylococcus aureus A15090” value [2] of the same compound?
Answer: Its value is 1.0 µg/mL (≈ 0.634 µM).

Question: And the “MIC (μg/mL) Streptococcus pneumoniae A28272” value [3]?
Answer: Its value is 0.03 µg/mL (≈ 0.019 µM).

Question: With `C=C(NC(=O)c1csc(-c2nc3c(cc2O)-c2nc(cs2)C(=O)NC(C(C)O)C(=O)NC(=C(C)OC)c2nc(cs2)C(=O)NC2c4nc(cs4)C(=O)NC(COC(=O)c4c5c6c(cccc6n4OCCCN(CC)CC)COC(=O)C(OC4CC(C)(O)C(N(C)C)C(C)O4)C2OC5)c2nc-3cs2)n1)C(N)=O` (stereo not drawn) [Example 51] as the compound, how does the “MIC (μg/mL) Enterococcus faecalis A20688” value [1] read?
Answer: Its value is 0.125 µg/mL (≈ 0.0806 µM).

Question: What about the “MIC (μg/mL) Staphylococcus aureus A15090” value [2] of the same compound?
Answer: The value was 0.5 µg/mL (≈ 0.322 µM).

Question: And the “MIC (μg/mL) Streptococcus pneumoniae A28272” value [3]?
Answer: Its value is 0.015 µg/mL (≈ 0.00967 µM).

Question: Which “MIC (μg/mL) Enterococcus faecalis A20688” value [1] does the source give for `COC(C)=C1NC(=O)C(C(C)O)NC(=O)c2csc(n2)-c2cc(O)c(-c3nc(C(N)=O)cs3)nc2-c2csc(n2)C2COC(=O)c3c4c5c(cccc5n3OCCCS(=O)(=O)O)COC(=O)C(OC3CC(C)(O)C(N(C)C)C(C)O3)C(OC4)C(NC(=O)c3csc1n3)c1nc(cs1)C(=O)N2` (stereo not drawn) [Example 53] here?
Answer: The value was 1.0 µg/mL (≈ 0.671 µM).

Question: What about the “MIC (μg/mL) Staphylococcus aureus A15090” value [2] of the same compound?
Answer: Its value is 0.25 µg/mL (≈ 0.168 µM).

Question: And the “MIC (μg/mL) Streptococcus pneumoniae A28272” value [3]?
Answer: Its value is 0.125 µg/mL (≈ 0.0839 µM).
